The data set in a line: in vitro. As to conditions: human, hela cells, % viability.

Drawing on publication PMC12040169 (PLOS Biology, 2025), this text covers viability for 79 compounds.

As a reminder, the viability is a read-out of living cells in per cent, often relative to untreated cells.

For the compound `CC1CCc2c(sc3ncnc(OCC(=O)N4CCNC4=O)c23)C1` (stereo not shown) [CBK305775], the viability at 28.5 h, 10 µM is 96.1%. As to `Cc1cc(NC(=O)c2nn(-c3nc4ccccc4s3)c3ccccc23)no1` [CBK048489], the viability at 28.5 h, 10 µM was 95.4%. On the same count and under the same terms, then `c1csc(C2CN(c3nccn4cnnc34)CCO2)c1` (stereo not shown) [CBK306380], with 85%. On the same count and under the same terms, under `FC(F)(F)c1ccc(CN2CCCC3(C2)NCCc2c3[nH]c3ccccc23)cc1` (stereo not shown) [CBK040095] stands 94.2%.

For the compound `COc1ccc2[nH]c3c(c2c1)CCNC31CCN(C(=O)COc2ccccc2)C1` (stereo not shown) [CBK061661], the viability at 28.5 h, 10 µM is 88.8%.

For `O=C(NC1CCCC1)c1ccncc1` [CBK143916], the viability at 28.5 h, 10 µM was 117%. The same measure, in the same setting: under `COCC1CN(C(=O)Nc2ncc(Cc3ccc(C)c(Cl)c3)s2)CCO1` (stereo not shown) [CBK306286] stands 84%; under `CN1CC(=O)N2CCOC(C2)c2cccc(n2)NC(=O)C/C=C/CC2(CCN(c3ncccn3)CC2)C1=O` (stereo not shown) [CBK292188], 95.2%; under `COC(=O)c1ccc(N2CCOCC2)c(NC(=O)COc2ccccc2)c1` [CBK270222], 84.6%. The same measure, in the same setting: under `COc1ccc(CNC(C)C2COc3ccccc3O2)c(OC)c1` (stereo not shown) [CBK074283G] stands 88.8%; under `CCC(CN1CCN(C)CC1)NC(=O)C1(c2ccc(F)cc2)CC1` (stereo not shown) [CBK282785], 104%. Take `Cc1csc(C(C)NC(=O)NC2CCCN(c3ccn(C)n3)C2=O)n1` (stereo not shown) [CBK304426]: the viability at 28.5 h, 10 µM is 107%. Regarding `COc1ccc(CN(Cc2ccccc2OC)[C@@H]2COC[C@H]2c2ccc(F)cc2)cc1` [CBK286484], the viability at 28.5 h, 10 µM worked out at 105%. Still for that read-out and setting: then `COc1cccc2sc(Nc3nc4c(s3)C(=O)CC(C)(C)C4)nc12` [CBK287467], with 86%; and `COc1ccccc1CCC(=O)Nc1cnn(C)c1` [CBK287995], with 117%. On the same count and under the same terms, under `O=C(O)c1ccc(N2C(=O)CC(N3CCC(Cc4ccccc4)CC3)C2=O)cc1` (stereo not shown) [CBK273484] stands 93.4%. Same read-out and setting: then `Cc1cc(Cl)ccc1NC(=O)CN1CCN(Cc2ccccc2)CC1` [CBK269438], with 93.6%; and `Cc1ccc(Cl)c(OC(C)C(=O)N(CCCO)Cc2ccncc2)c1` (stereo not shown) [CBK305432], with 109%. For `Cc1cnn(CCNc2cc(C(C)C)nc3ccnn23)c1` [CBK306792], the viability at 28.5 h, 10 µM came to 91.5%. The same measure, in the same setting: then `Cc1nn(C)c(C)c1C(C)NC(=O)C1CC2C=CC1C21CC1` (stereo not shown) [CBK283076], with 81.5%; and `CN(Cc1ccc(-c2ccc(S(C)(=O)=O)cc2)nc1)C1CCN(C(=O)c2cc(Cl)ccc2Cl)CC1` [CBK165943T], with 84.5%. Same read-out and setting: under `Cc1cccc(-c2noc([C@@H]3Cc4[nH]cnc4CN3C(=O)NC(C)C)n2)c1` [CBK288962] stands 97.6%; under `CCC(C)c1ccc(NC(C)C(=O)Nc2ccc3[nH]c(=O)[nH]c3c2)cc1` (stereo not shown) [CBK296694], 92.1%.

Take `O=C1/C(=C/NCc2cccnc2)C(c2ccccc2)=NN1c1ccc([N+](=O)[O-])cc1` [CBK262911]: the viability at 28.5 h, 10 µM stood at 97.6%. Consider `COc1ccc([C@@]23CC[C@@H](NC(=O)Nc4ccccc4C#N)C[C@@H]2N(C)CC3)cc1OC` [CBK047540T], for which the viability at 28.5 h, 10 µM was 96.1%. On to `COC1C(O)=CC(=O)OC1(CCc1ccco1)CCc1ccco1` (stereo not shown) [CBK001858], for which the viability at 28.5 h, 10 µM worked out at 86.7%. Same read-out and setting: under `CC(=O)Nc1cccc(-n2nnnc2SCCCCCF)c1` [CBK306164] stands 110%; under `Cc1cc(S(=O)(=O)Nc2n[nH]cc2C#N)c(C)cc1Cl` [CBK044943], 91.9%; under `Nc1cccc(-c2cncc(Nc3ccccc3)n2)c1` [CBK065265], 96.2%. On the same count and under the same terms, under `Cc1nn(C)cc1C(=O)NC(Cc1ccsc1)c1cccnc1` (stereo not shown) [CBK285392] stands 109%; under `COc1cc(C(=O)N(Cc2ccco2)c2ccc(O)cc2)cc(OC)c1OC` [CBK266315], 102%; under `Fc1c(F)c(Oc2ccccc2Cl)c(F)c(F)c1/C=C/CN1CCOCC1` [CBK269318C], 96.7%. On the same count and under the same terms, then `Cc1nnc(SCc2nc3ccccc3c(=O)[nH]2)[nH]1` [CBK267830], with 90%.

As for `CC1(C)CC(=O)C=C(C(=O)Nc2cccc(-c3ccc4c(c3)COC3(CCNCC3)O4)c2)O1` [CBK093704], the viability at 28.5 h, 10 µM (bulk resorufin, single well) is 97.8%. With `NC1=NNC2=C(c3ccc(Cl)cc3Cl)NNN12` [CBK093660], the viability at 28.5 h, 10 µM came out at 86.4%. Still for that read-out and setting: then `COc1ccc2[nH]cc(CCNC(=O)C3CC(=O)c4ccccc43)c2c1` (stereo not shown) [CBK116221], with 97.3%; and `c1csc(CNc2nccnc2-c2cccs2)c1` [CBK036602], with 92.6%. Still for that read-out and setting: under `Cc1ccc2c(c1)cc(C(=O)N1CCC(C(=O)NCCc3ccc(Cl)cc3)C1)n2C` (stereo not shown) [CBK285926] stands 103%; under `O=C(NCCc1cccs1)NCc1cc(F)ccc1F` [CBK045363], 97.1%; under `COCCOc1ccc(C(=O)N[C@@H]2CNCCC[C@H]2O)cc1` [CBK289071], 94.6%.

As for `COc1cc(C=C2SC(=S)N(CCCCCC(=O)O)C2=O)cc(OC)c1` [CBK297505], the viability at 28.5 h, 10 µM is 98.1%.

In the case of `CC(=O)Nc1cccc(-c2cc(NCc3ccccc3)n3nccc3n2)c1` [CBK037153], the viability at 28.5 h, 10 µM is 97.2%. The same measure, in the same setting: then `CC(=O)c1c2c(c(N3CCN(C#N)CC3)[nH]c1=S)CC(C)(C)OC2` [CBK018622], with 86.3%; and `COc1ccc(NC(=O)COc2noc3nc(C)c(C)c(C)c23)cc1OC` [CBK269526], with 108%. With `Cn1nnnc1NC(=O)c1ccccc1F` [CBK058776], the viability at 28.5 h, 10 µM worked out at 102%. Same read-out and setting: under `CCOC(=O)N1CCN(C(=O)Nc2ccc3oc(=O)n(C)c3c2)CC1` [CBK306250] stands 109%. The same measure, in the same setting: then `Cc1ccc(S(=O)(=O)N2CCN(CC(O)COc3ccc4ccccc4c3Cl)CC2)c(C)c1` (stereo not shown) [CBK266563], with 83%; and `Cc1nc2cc(OCc3nc(C(=O)NC4CCNC4=O)co3)ccc2s1` (stereo not shown) [CBK307298], with 91.8%. As for `O=C1NC(=S)N(c2ccccc2F)C(=O)/C1=C/NCc1ccco1` [CBK265126], where the note is “bulk resorufin, single well”, the viability at 28.5 h, 10 µM worked out at 86.6%. For `COc1cc(CNc2nc(-c3ccc(C(C)(C)C)cc3)cn3ccnc23)cc(OC)c1OC` [CBK066615], the viability at 28.5 h, 10 µM was 99.3%. The same measure, in the same setting: under `Cc1ccc(N2CCCC2=O)cc1S(=O)(=O)NC(c1ccccc1)c1ccccc1` [CBK286348] stands 85.6%; under `COC[C@@H]1CCCN1S(=O)(=O)c1ccc(C(C)C)cc1` [CBK200045], 110%. The same measure, in the same setting: then `Cc1noc(C)c1S(=O)(=O)Nc1cccc(-c2cnco2)c1` [CBK067108], with 97.1%. Still for that read-out and setting: then `c1ccc(C(=NCCN=C(c2ccccc2)c2ccccc2)c2ccccc2)cc1` [CBK262065], with 113%; and `O=C(Nc1ncc(Cc2ccc(F)cc2)s1)C1CCCCC1` [CBK058611], with 105%; and `O=C1CNC(=O)C2(C/C=C/C[C@H]3COCC[C@H]3N1)CCN(CCOc1ccccc1)CC2` [CBK292077], with 107%.

On to `O=S(=O)(c1ccc(-c2ccccc2)cc1)N1CCCN(CCCOC2CCCCO2)CC1` (stereo not shown) [CBK063137], for which the viability at 28.5 h, 10 µM came to 114%. Same read-out and setting: under `Cc1ccccc1-c1noc(CNC(Cn2ccnc2)C(C)C)n1` (stereo not shown) [CBK307560] stands 89.1%; under `CCOC(=O)c1[nH]c2ccccc2c1NC(=O)c1ccoc1` [CBK160169], 107%; under `Cc1nnc(SCc2cc(=O)[nH]c(N3CCN(Cc4ccccc4)CC3)n2)s1` [CBK268837], 104%. The same measure, in the same setting: under `CC(C)CC(=O)N1CCc2c([nH]c3ccccc23)C12CCN(Cc1ccccc1)C2` (stereo not shown) [CBK059459] stands 81.6%. The same measure, in the same setting: then `CC1(CNS(=O)(=O)Cc2cc(F)cc(F)c2)COC1` [CBK281413], with 91.3%. With `C/C(=N/OCC(=O)N/N=C/c1sc2ccccc2c1O)c1ccccc1` [CBK262266], the viability at 28.5 h, 10 µM is 96.3%.

In the case of `Cc1ccc(S(=O)(=O)n2ccc3ccc(N4CCN(C)CC4)nc32)cc1` [CBK063327], the viability at 28.5 h, 10 µM worked out at 84%. On the same count and under the same terms, under `CC1(C)Cc2ccccc2C(NCCC(=O)O)=N1` [CBK023412] stands 97.9%; under `CCN(CC)CCCNC(=O)N(CCC#N)C1CCCCC1` [CBK156377], 95%; under `Cc1ccc(S(=O)(=O)N(CC(=O)O)c2ccc(Cl)cc2)cc1` [CBK263767], 106%.

On to `O=C(O)c1cc(-c2ccc(F)cc2)n[nH]1` [CBK267848], for which the viability at 28.5 h, 10 µM is 96.1%.

For the compound `N#Cc1ccc(C(=O)Nc2cncc(OC3CCNCC3)n2)cc1` [CBK036371T], the viability at 28.5 h, 10 µM stood at 90.6%. With `O=C(O)C1CCN(C(=O)CCC(=O)N2CCN(c3ccccc3)CC2)CC1` [CBK286896], the viability at 28.5 h, 10 µM amounted to 93.9%. The same measure, in the same setting: under `CCc1ccc(C2=CC(c3cccc(C)c3)n3nnnc3N2)cc1` (stereo not shown) [CBK268095] stands 88.6%; under `COC(=O)c1ccc(-c2cc3ccccc3o2)nc1` [CBK149228T], 85.9%. Still for that read-out and setting: under `Cn1ccnc1C1(O)CCN(C(=O)c2ccccc2F)CC1` [CBK283536] stands 105%; under `COc1cc(C(=O)N2CCC3(CC2)CC(=O)c2cc(Br)ccc2O3)ccc1C` [CBK149465], 110%; under `O=S(=O)(c1ccc(F)cc1)N1CCCC(c2nccnc2-c2ccc(F)cc2)C1` (stereo not shown) [CBK286136], 117%.

Consider `Cc1cc(-c2cn(C)nc2C2CCCCN2C(=O)C2CCCC2)on1` (stereo not shown) [CBK283404], for which the viability at 28.5 h, 10 µM was determined as 96.9%. Still for that read-out and setting: then `COc1cc(CN2CCC3(CC2)CN(C(=O)CO)c2ccccc23)cc(OC)c1OC` [CBK131494], with 94%; and `CC[C@@H]1CCCCN1C(=O)c1ccc(Cl)c(C)c1` [CBK084565], with 91.6%. For the compound `CSCCC(=O)N1CCCC2(CCN(C(=O)c3cc(F)c(F)cc3F)C2)C1` (stereo not shown) [CBK131557], the viability at 28.5 h, 10 µM worked out at 93.7%.
